Measurements as given in paper PMC3356383, “Efficacious Intermittent Dosing of a Novel JAK2 Inhibitor in Mouse Models of Polycythemia Vera” (PLoS ONE, 2012).

How the values were obtained:
Ret = test: Kinase profiling (Millipore); assay type: biochemical; conditions: IC50s measured at ATP Km, fold increase relative to JAK2
Method: (§1) Kinase profiling was conducted by Millipore (Billerica, MA).
(§2) Supplementary file pone.0037207.s003.doc: Table S1 Recombinant Kinase Selectivity Profile of MRLB-11055. IC50s measured at ATP Km, and fold increase relative to JAK2 is reported. (DOC) Click here for additional data file.

Arg = test: Kinase profiling (Millipore); assay type: biochemical; conditions: IC50s measured at ATP Km, fold increase relative to JAK2
Method: as §1, §2

Hck = test: Kinase profiling (Millipore); assay type: biochemical; conditions: IC50s measured at ATP Km, fold increase relative to JAK2
Method: as §1, §2

Lck = test: Kinase profiling (Millipore); assay type: biochemical; conditions: IC50s measured at ATP Km, fold increase relative to JAK2
Method: as §1, §2

Yes = test: Kinase profiling (Millipore); assay type: biochemical; conditions: IC50s measured at ATP Km, fold increase relative to JAK2
Method: as §1, §2

Bmx = test: Kinase profiling (Millipore); assay type: biochemical; conditions: IC50s measured at ATP Km, fold increase relative to JAK2
Method: as §1, §2

CaMKIIγ = test: Kinase profiling (Millipore); assay type: biochemical; conditions: IC50s measured at ATP Km, fold increase relative to JAK2
Method: as §1, §2

Flt3 = test: Kinase profiling (Millipore); assay type: biochemical; conditions: IC50s measured at ATP Km, fold increase relative to JAK2
Method: as §1, §2

TrkB = test: Kinase profiling (Millipore); assay type: biochemical; conditions: IC50s measured at ATP Km, fold increase relative to JAK2
Method: as §1, §2

TrkA = test: Kinase profiling (Millipore); assay type: biochemical; conditions: IC50s measured at ATP Km, fold increase relative to JAK2
Method: as §1, §2

CaMKIIδ = test: Kinase profiling (Millipore); assay type: biochemical; conditions: IC50s measured at ATP Km, fold increase relative to JAK2
Method: as §1, §2

MLK1 = test: Kinase profiling (Millipore); assay type: biochemical; conditions: IC50s measured at ATP Km, fold increase relative to JAK2
Method: as §1, §2

cSRC = test: Kinase profiling (Millipore); assay type: biochemical; conditions: IC50s measured at ATP Km, fold increase relative to JAK2
Method: as §1, §2

Lyn = test: Kinase profiling (Millipore); assay type: biochemical; conditions: IC50s measured at ATP Km, fold increase relative to JAK2
Method: as §1, §2

Fms = test: Kinase profiling (Millipore); assay type: biochemical; conditions: IC50s measured at ATP Km, fold increase relative to JAK2
Method: as §1, §2

PTK5 = test: Kinase profiling (Millipore); assay type: biochemical; conditions: IC50s measured at ATP Km, fold increase relative to JAK2
Method: as §1, §2

PRK2 = test: Kinase profiling (Millipore); assay type: biochemical; conditions: IC50s measured at ATP Km, fold increase relative to JAK2
Method: as §1, §2

ACK1 = test: Kinase profiling (Millipore); assay type: biochemical; conditions: IC50s measured at ATP Km, fold increase relative to JAK2
Method: as §1, §2

ARK5 = test: Kinase profiling (Millipore); assay type: biochemical; conditions: IC50s measured at ATP Km, fold increase relative to JAK2
Method: as §1, §2

Fgr = test: Kinase profiling (Millipore); assay type: biochemical; conditions: IC50s measured at ATP Km, fold increase relative to JAK2
Method: as §1, §2

BTK = test: Kinase profiling (Millipore); assay type: biochemical; conditions: IC50s measured at ATP Km, fold increase relative to JAK2
Method: as §1, §2

Fyn = test: Kinase profiling (Millipore); assay type: biochemical; conditions: IC50s measured at ATP Km, fold increase relative to JAK2
Method: as §1, §2

220 recombinant kinases = test: Kinase profiling (Millipore), whole panel; assay type: biochemical; conditions: 198 of 220 tested kinases; based on JAK2 (JH1-JH2) IC50
Method: as §1

pSTAT5 = test: Acute PK/PD: pSTAT5 in peripheral blood of darbepoetin-stimulated mice; assay type: in vivo, C57BL/6 mice; conditions: Mus musculus
Method: C57BL/6 mice (Charles River Laboratories, Wilmington, MA) aged 4–6 weeks were dosed with MRLB-11055 in vehicle (10%v/v polysorbate 80) or with vehicle alone. All dosing was done by oral gavage (10 ml/kg body weight/day). Blood sampling and measurement of pSTAT5 in the blood of darbepoetin-stimulated mice were measured as described previously. The level of MRLB-11055 in the blood of animals was measured by diluting blood samples (10 uL) with citrate buffer (30 uL) and precipitating with acetonitrile (200 uL) containing a structural analog as internal standard. Precipitated samples were filtered, water (200 uL) was added and the sample injected onto a C18 column (Waters Atlantis T3, 2.1 mm x 30 mm). Electrospray ionization with multiple reaction monitoring was used for MS/MS detection.

TYK2 (JH1) = target: T1, TYK2 (JH1) (Homo sapiens, UniProt P29597); test: TYK2 enzyme assay, HTRF detection; assay type: biochemical
T1 construct: TYK2 (JH1)
T1 sequence (P29597 897-1176 limits assumed, species assumed): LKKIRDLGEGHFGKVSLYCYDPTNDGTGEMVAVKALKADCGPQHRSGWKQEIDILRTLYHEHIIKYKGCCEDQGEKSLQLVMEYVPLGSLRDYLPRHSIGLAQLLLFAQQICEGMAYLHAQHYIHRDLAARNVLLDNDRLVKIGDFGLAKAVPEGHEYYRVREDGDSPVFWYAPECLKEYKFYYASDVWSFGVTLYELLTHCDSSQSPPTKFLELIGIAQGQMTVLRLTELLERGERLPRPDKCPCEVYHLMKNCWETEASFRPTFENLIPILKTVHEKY
Method: (§3) JAK1, JAK2, JAK3, and TYK2 kinase activity assays were performed as described previously using HTRF detection technology and the peptide substrate amino hexanoyl biotin-EQEDEPEGDYFEWLE-NH2. Each reaction was incubated between 60 and 80 min at room temperature. Final conditions were as follows: JAK1, 400 pM enzyme, Hepes pH 7.5, 10 mM MgCl2, 0.01% Brij-35, 1 mM EGTA, 0.1 mg/ml BSA), 2 mM DTT, 2 µM peptide substrate, 25 µM MgATP, 5% DMSO and the desired concentration of subject compound; JAK2, 25 pM enzyme (JH1, JH1–JH2^wt, JH1–JH2^V617F domains), 2 µM peptide substrate, 15 µM MgATP, 5 mM MgCl2, 100 mM NaCl, 2 mM DTT, 0.1 mg/ml BSA, 50 mM Tris (pH 7.4), 5% DMSO and the desired concentration of subject compound; JAK3, 250 pM enzyme, 50 mM Hepes pH 7.5, 10 mM MgCl2, 0.01% Brij-35, 1 mM EGTA, 0.1 mg/ml BSA), 2 mM DTT, 2.0 µM peptide substrate, 25 µM MgATP, 5% DMSO, and the desired concentration of subject compound; TYK2, 125 pM enzyme, 50 mM Hepes pH 7.5, 10 mM MgCl2, 0.01% Brij-35, 1 mM EGTA, 0.1 mg/ml BSA, 2 mM DTT, 2.0 µM peptide substrate, 15 µM MgATP, 5% DMSO and the desired concentration of subject compound.

[1] = tested on: lung epithelial cancer cell lines, including H2122 cells; test: Cell proliferation of several lung epithelial cancer cell lines; assay type: cell-based; conditions: on average
Method: Cell proliferation was measured by ViaLight (Lonza Group Ltd) assay as follows. Cells (1000–2000) were seeded into 384-well plates and incubated 16 hours @ 37°C, 5% CO2. […] Cells were lysed and ATP detected as per the manufacturer protocol.

JAK1 (JH1) = target: T2, JAK1 (JH1) (Homo sapiens, UniProt P23458); test: JAK1 enzyme assay, HTRF detection; assay type: biochemical
T2 construct: JAK1 (JH1)
T2 sequence (P23458 875-1153 limits assumed, species assumed): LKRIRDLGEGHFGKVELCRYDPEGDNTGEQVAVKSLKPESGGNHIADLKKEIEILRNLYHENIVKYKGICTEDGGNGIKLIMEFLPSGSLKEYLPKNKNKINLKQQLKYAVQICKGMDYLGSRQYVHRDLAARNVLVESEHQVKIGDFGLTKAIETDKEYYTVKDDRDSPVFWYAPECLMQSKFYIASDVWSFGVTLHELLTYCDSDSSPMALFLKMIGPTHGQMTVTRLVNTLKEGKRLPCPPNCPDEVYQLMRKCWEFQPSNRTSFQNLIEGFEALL
Method: as §3

NC(=O)c1cnc(N[C@H](C2CC2)C(F)(F)F)c2c1[nH]c1cc(-c3cnc(N)nc3)ccc12 [MRLB-11055]
Fold-Shift /JAK2, Ret (Ret): 3 fold | Fold-Shift /JAK2, Arg (Arg): 17 fold | Fold-Shift /JAK2, Hck (Hck): 3 fold | Fold-Shift /JAK2, Lck (Lck): 5 fold | Fold-Shift /JAK2, Yes (Yes): 7 fold | Fold-Shift /JAK2, Bmx (Bmx): 4 fold | Fold-Shift /JAK2, CaMKIIγ (CaMKIIγ): 11 fold | Fold-Shift /JAK2, Flt3 (Flt3): 3 fold | Fold-Shift /JAK2, TrkB (TrkB): 8 fold | Fold-Shift /JAK2, TrkA (TrkA): 1 fold | Fold-Shift /JAK2, CaMKIIδ (CaMKIIδ): 10 fold | Fold-Shift /JAK2, MLK1 (MLK1): 18 fold | Fold-Shift /JAK2, cSRC (cSRC): 1 fold | Fold-Shift /JAK2, Lyn (Lyn): 4 fold | Fold-Shift /JAK2, Fms (Fms): 2 fold | Fold-Shift /JAK2, PTK5 (PTK5): 8 fold | Fold-Shift /JAK2, PRK2 (PRK2): 13 fold | Fold-Shift /JAK2, ACK1 (ACK1): 2 fold | Fold-Shift /JAK2, ARK5 (ARK5): 6 fold | Fold-Shift /JAK2, Fgr (Fgr): 5 fold | Fold-Shift /JAK2, BTK (BTK): 7 fold | Fold-Shift /JAK2, Fyn (Fyn): 2 fold | Fold selectivity over JAK2 for 198/220 kinases (220 recombinant kinases): >25-fold over JAK2 | inhibition at 36 mg/kg (pSTAT5; 36 mg/kg oral, maintained over 12 hours): > 90% | IC50 (pSTAT5; oral dosing, mice simultaneously injected with darbepoetin, read-out: IC50 for inhibition of pSTAT5 in peripheral blood in vivo): 1200 nM | IC50 (TYK2 (JH1); HTRF, mean, n = 3, read-out: IC50, cell-free TYK2 (JH1)): 0.18 nM | Selectivity for JAK2 over Tyk2 (TYK2 (JH1); cell-free assays): 2 fold | Proliferation IC50 of lung epithelial cancer cell lines, fold higher than for JAK2-dependent cell lines [1]: 50–70 fold | IC50 (JAK1 (JH1); HTRF, mean, n = 3, read-out: IC50, cell-free JAK1 (JH1)): 1.5 nM | Selectivity for JAK2 over JAK1 (JAK1 (JH1); cell-free assays): 20 fold
